From patent US3987167A, “Antibiotic 20,798 R.P” (Rhone-Poulenc S.A., priority 1968, dated 1976)

Legend:
[1] = Stability to acid treatment of the fermentation broth; assay type: physicochemical; details: 10° to 75° C., 48 hours to 30 minutes
Procedure: When desired, the fermentation broth can, before the extraction procedures, be treated with an acid at a temperature between 10° and 75° C. for a period of from 48 hours to 30 minutes, the length of time varying inversely with the temperature, so as to enrich the antibiotic 9865 R.P. with daunorubicin. […] For acidification of the fermentation broth inorganic acids (hydrochloric, phosphoric or sulphuric acid) or organic acids (acetic or oxalic acid etc.) are suitable at various concentrations, but preferably hydrochloric acid or oxalic acid is used at concentrations of between 0.01N and 1N. The hydrolysis is preferably carried out for a period of from 15 hours to 1 hour at a temperature of from 20 C. to 50° C., the length of time varying inversely with the temperature.

[2] = tested on: leucaemia L1210; test: Anti-tumour activity in mice, leucaemia L1210; details: graftable tumours of mice, leucaemia L 1210
[3] = tested on: sarcoma 180; test: Anti-tumour activity in mice, sarcoma 180; details: graftable tumours of mice, solid form of sarcoma 180
[4] = tested on: acute lymphoblastic and myeloblastic leucaemias; test: Activity in human therapy; assay type: in vivo; details: intravenous, daily doses between 0.1 and 2 mg./kg., adult
Procedure: In human therapy 20,798 R.P. is active, particularly against acute lymphoblastic and myeloblastic leucaemias, when administered intravenously at daily doses of between 0.1 and 2 mg./kg. for an adult; a composition for injection for example, consists of a solution of 0.1 mg./cc. of active substance in physiological serum.

## COc1cccc2c1C(=O)c1c(O)c3c(c(O)c1C2=O)CC(O)(C(C)O)CC3OC1CC(N)C(O)C(C)O1 (stereo not shown) [20,798 R.P.]
[1]
  hydrolysis on acid treatment: not hydrolysed
[2]
  anti-tumour activity: particularly active
[3]
  anti-tumour activity: particularly active
[4]
  activity in human therapy: active
